Values quoted from earlier work, collected in patent US12633379B2, “Visible neural network framework” (priority 2020, dated 2026).

Tested on: 39 human cancer cell lines
[1] = across the majority of cell lines tested in DeepSynergy, partners in FIG. 5F: MK2206, PD325901

Compound: COc1cc([C@@H]2c3cc4c(cc3[C@@H](O[C@@H]3O[C@@H]5CO[C@@H](C)O[C@H]5[C@H](O)[C@H]3O)[C@H]3COC(=O)[C@H]23)OCO4)cc(OC)c1O [etoposide]
- Loewe synergy in combination with AKT inhibition [1]: synergized strongly
- Loewe synergy in combination with MEK inhibition [1]: synergized strongly
- Loewe synergy in combination with bortezomib (combined with the proteasome inhibitor bortezomib, DeepSynergy cell line panel, FIG. 12A, FIG. 5F): did not synergize
